Data reported in patent publication US8471005B2 (Cephalon, Inc., priority 2008, dated 2013).
Like-named read-outs stand apart in the source and are kept apart here.

Columns and labels:
[1] = molecular target: T1, ALK (Homo sapiens, UniProt Q9UM73); experiment: ALK Kinase Assay (ELISA/TRF, PLC-γ substrate); format: biochemical; conditions: read-out: ALK Potency
T1 construct: host or cells: baculovirus expression system
In short: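 Wells were coated with 10 μg/mL phospholipase C-γ substrate in TBS, and the reaction was started by adding 30 ng/ml ALK enzyme and run at 37° C for 15 minutes. Phosphorylated product was detected with Eu-N1-labeled PT66 antibody, and IC50 values came from sigmoidal variable-slope fits of percent inhibition against log concentration.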

[2] = molecular target: T2, JAK2 (Homo sapiens, UniProt O60674); experiment: Recombinant Human JAK2 Kinase Assay (TRF); format: biochemical; conditions: read-out: JAK2 Potency
T2 construct: host or cells: baculovirus expression system
In short: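 Baculovirus-expressed JAK2 (15 ng/ml) phosphorylated a biotinylated 15-mer peptide captured on Neutravidin-coated plates, in 20 mM HEPES pH 7.2 with 0.2 μM ATP, 1 mM MnCl2, 0.1% BSA and 2.5% DMSO. Reaction ran 20 min at room temperature; phosphopeptide was detected by time-resolved fluorescence with Eu-N1-labelled PY100 antibody.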

[3] = ALK kinase inhibition, 1 μM ATP
[4] = JAK2 kinase inhibition, 0.2 μM ATP

T1 sequence (Q9UM73 19-1620): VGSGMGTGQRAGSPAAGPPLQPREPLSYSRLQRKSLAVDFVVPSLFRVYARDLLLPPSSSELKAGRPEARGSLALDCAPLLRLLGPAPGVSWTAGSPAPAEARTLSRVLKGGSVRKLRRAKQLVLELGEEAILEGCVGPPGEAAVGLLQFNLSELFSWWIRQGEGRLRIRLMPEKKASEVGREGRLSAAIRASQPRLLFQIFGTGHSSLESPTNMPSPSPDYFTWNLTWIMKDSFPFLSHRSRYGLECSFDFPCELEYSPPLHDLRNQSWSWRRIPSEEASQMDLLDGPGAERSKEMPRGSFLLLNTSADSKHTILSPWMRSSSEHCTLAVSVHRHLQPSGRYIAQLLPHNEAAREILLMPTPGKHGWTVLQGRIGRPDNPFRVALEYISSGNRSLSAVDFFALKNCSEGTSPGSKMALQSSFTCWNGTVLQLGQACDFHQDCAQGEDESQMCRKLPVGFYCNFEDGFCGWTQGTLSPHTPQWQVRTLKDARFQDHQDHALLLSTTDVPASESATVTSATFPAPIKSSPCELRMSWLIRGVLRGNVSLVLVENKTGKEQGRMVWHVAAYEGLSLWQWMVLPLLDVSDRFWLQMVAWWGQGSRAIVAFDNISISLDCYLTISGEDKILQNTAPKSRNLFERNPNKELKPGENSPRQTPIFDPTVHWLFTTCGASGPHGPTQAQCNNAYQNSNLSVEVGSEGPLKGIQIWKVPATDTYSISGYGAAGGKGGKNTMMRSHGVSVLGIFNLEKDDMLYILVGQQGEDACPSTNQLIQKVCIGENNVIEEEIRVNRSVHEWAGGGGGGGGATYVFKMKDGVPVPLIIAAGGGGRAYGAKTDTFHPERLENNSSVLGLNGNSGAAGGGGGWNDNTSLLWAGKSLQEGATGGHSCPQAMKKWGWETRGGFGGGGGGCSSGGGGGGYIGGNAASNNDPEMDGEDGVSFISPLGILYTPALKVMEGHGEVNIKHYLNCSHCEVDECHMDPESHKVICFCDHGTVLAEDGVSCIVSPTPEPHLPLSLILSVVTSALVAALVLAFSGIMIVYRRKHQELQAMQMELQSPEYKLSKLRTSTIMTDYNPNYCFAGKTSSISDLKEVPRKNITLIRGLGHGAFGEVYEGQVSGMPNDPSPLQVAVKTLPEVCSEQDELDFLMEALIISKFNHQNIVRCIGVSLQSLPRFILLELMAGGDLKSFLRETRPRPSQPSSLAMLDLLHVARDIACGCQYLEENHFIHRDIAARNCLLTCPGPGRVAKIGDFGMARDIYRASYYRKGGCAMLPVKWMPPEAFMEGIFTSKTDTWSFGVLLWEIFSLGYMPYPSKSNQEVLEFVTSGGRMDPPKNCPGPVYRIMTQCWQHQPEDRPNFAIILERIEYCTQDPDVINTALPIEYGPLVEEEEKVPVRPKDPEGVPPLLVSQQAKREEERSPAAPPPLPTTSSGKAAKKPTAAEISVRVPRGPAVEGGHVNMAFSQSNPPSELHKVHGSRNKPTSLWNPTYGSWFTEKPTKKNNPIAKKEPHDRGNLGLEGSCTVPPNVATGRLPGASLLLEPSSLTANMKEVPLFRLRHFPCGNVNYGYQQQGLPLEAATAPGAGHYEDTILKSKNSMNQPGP
T2 sequence (O60674 whole entry): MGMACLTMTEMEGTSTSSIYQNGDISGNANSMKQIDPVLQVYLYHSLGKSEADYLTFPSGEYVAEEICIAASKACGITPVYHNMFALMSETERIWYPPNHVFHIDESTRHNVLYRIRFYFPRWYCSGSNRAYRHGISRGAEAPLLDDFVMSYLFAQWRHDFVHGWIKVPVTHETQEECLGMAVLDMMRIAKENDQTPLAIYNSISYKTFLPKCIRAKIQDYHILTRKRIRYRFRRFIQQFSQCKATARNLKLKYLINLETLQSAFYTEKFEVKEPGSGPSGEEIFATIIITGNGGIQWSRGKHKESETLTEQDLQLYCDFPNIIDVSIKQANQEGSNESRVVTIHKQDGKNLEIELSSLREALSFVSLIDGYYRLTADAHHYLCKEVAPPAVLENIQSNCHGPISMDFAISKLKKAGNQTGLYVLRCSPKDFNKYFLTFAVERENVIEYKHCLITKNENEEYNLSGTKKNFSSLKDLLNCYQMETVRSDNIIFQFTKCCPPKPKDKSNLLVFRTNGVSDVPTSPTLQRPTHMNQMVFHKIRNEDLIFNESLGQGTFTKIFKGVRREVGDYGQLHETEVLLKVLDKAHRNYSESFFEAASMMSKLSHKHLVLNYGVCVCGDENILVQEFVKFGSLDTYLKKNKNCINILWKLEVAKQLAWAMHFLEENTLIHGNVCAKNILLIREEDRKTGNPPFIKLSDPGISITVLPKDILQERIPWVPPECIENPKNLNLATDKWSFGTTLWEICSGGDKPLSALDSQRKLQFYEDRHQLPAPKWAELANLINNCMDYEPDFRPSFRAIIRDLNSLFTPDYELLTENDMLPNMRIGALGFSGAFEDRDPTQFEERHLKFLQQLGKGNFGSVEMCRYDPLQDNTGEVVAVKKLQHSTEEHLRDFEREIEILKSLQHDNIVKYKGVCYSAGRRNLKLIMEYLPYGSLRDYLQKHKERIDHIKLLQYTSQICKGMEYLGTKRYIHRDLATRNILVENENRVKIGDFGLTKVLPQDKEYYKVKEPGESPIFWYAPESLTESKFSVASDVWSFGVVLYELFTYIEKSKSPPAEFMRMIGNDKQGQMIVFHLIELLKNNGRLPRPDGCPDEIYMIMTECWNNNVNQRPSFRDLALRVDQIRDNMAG

| IC50 [1, 3] | IC50 [2, 4] | IC50 ([1]; ALK Kinase Inhibition) | IC50 ([2]; JAK2 Kinase Inhibition) | Compound |
| --- | --- | --- | --- | --- |
| > 10 µM | > 10 µM | – | – | COc1cc(C2CCN(C[C@H](Oc3ncc4ccc(-c5ccccc5N(C)S(C)(=O)=O)n4n3)C(F)(F)F)CC2)ccc1N [Example 785, N-[2-(2-{(S)-1-[4-(4-Amino-3-methoxy-phenyl)-piperidin-1-ylmethyl]-2,2,2-trifluoro-ethoxy}-pyrrolo[2,1-f][1,2,4]triazin-7-yl)-phenyl]-N-methyl-methanesulfonamide] |
| 1 to 10 µM | < 0.1 µM | – | – | CC(C)(C)NS(=O)(=O)c1cccc(-c2ccc3cnc(Nc4ccc5nc(CO)[nH]c5c4)nn23)c1 [Example 1066, N-tert-Butyl-3-[2-(2-hydroxymethyl-3H-benzoimidazol-5-ylamino)-pyrrolo[2,1-f][1,2,4]triazin-7-yl]-benzenesulfonamide] |
| 1 to 10 µM | < 0.1 µM | – | – | CN1CCN(C)C(c2ccc(Nc3ncc4ccc(-c5cccc(S(=O)(=O)NC(C)(C)C)c5)n4n3)cc2)C1=O (centres unmarked) [Example 1074, N-tert-Butyl-3-{2-[4-(1,4-dimethyl-3-oxo-piperazin-2-yl)-phenylamino]-pyrrolo[2,1-f][1,2,4]triazin-7-yl}-benzene sulfonamide] |
| 0.1 to 1 µM | < 0.1 µM | – | – | CN1CCN(c2ccc(Nc3ncc4ccc(-c5cccnc5Cl)n4n3)cc2)CC1 [Example 1036, [7-(2-Chloro-pyridin-3-yl)-pyrrolo[2,1-f][1,2,4]triazin-2-yl]-[4-(4-methyl-piperazin-1-yl)-phenyl]-amine] |
| 0.1 to 1 µM | < 0.1 µM | – | – | CN1CCC(c2ccc(Nc3ncc4ccc(-c5cccc(S(=O)(=O)N(C)C)c5)n4n3)cc2)CC1 [Example 902, N,N-Dimethyl-3-{2-[4-(1-methyl-piperidin-4-yl)phenylamino]-pyrrolo[2,1-f][1,2,4]triazin-7-yl}-benzenesulfonamide] |
| 1 to 10 µM | < 0.1 µM | – | – | CC(=O)N1CCCCc2ccc(Nc3ncc4ccc(-c5cccc(NS(C)(=O)=O)c5)n4n3)cc21 [Example 633, N-{3-[2-(1-Acetyl-2,3,4,5-tetrahydro-1H-benzo[b]azepin-8-ylamino)-pyrrolo[2,1-f][1,2,4]triazin-7-yl]-phenyl}methanesulfonamide] |
| – | – | 0.1 to 1 µM | < 0.1 µM | COc1ccccc1-c1c(C)c(C)c2cnc(Nc3ccc(N4CCOCC4)cc3)nn12 [Example 112, [7-(2-Methoxy-phenyl)-5,6-dimethyl-pyrrolo[2,1-f][1,2,4]triazin-2-yl]-(4-morpholin-4-yl-phenyl)-amine] |
| 0.1 to 1 µM | < 0.1 µM | – | – | COc1ccc(-c2ccc3cnc(Nc4ccc(C5CN(CC(N)=O)C5)cc4)nn23)cn1 [Example 584, 2-(3-{4-[7-(6-Methoxy-pyridin-3-yl)-pyrrolo[2,1-f][1,2,4]triazin-2-ylamino]-phenyl}-azetidin-1-yl)-acetamide] |
| < 0.1 µM | 0.1 to 1 µM | – | – | COc1cc(C2CCN(C[C@@H](C)O)CC2)ccc1Nc1ncc2ccc(-c3cc(Cl)ccc3OC)n2n1 [Example 794, (R)-1-(4-{4-[7-(5-Chloro-2-methoxy-phenyl)-pyrrolo[2,1-f][1,2,4]triazin-2-ylamino]-3-methoxy-phenyl}-piperidin-1-yl)-propan-2-ol] |
| < 0.1 µM | < 0.1 µM | – | – | COc1cc(N2CCC(N3CCOCC3)CC2)ccc1Nc1ncc2ccc(-c3ccccc3C#N)n2n1 [Example 511, 2-{2-[2-Methoxy-4-(4-morpholin-4-yl-piperidin-1-yl)-phenylamino]-pyrrolo[2,1-f][1,2,4]triazin-7-yl}-benzonitrile] |
| > 10 µM | < 0.1 µM | – | – | COc1ccc(-c2ccc3cnc(Nc4ccc5c(c4)CCN(CC(N)=O)C5)nn23)cn1 [Example 916, 2-{6-[7-(6-Methoxy-pyridin-3-yl)-pyrrolo[2,1-f][1,2,4]triazin-2-ylamino]-3,4-dihydro-1H-isoquinolin-2-yl}-acetamide] |
| < 0.1 µM | 0.1 to 1 µM | – | – | COc1cc(C2CCN(CCO)CC2)ccc1Nc1ncc2ccc(-c3cccc(S(=O)(=O)NC(C)(C)C)c3)n2n1 [Example 694, N-tert-Butyl-3-(2-{4-[1-(2-hydroxy-ethyl)-piperidin-4-yl]-2-methoxy-phenylamino}-pyrrolo[2,1-f][1,2,4]triazin-7-yl)-benzenesulfonamide] |
| – | – | < 0.1 µM | < 0.1 µM | COc1ccccc1-c1ccc2cnc(Nc3ccc(N4CCCC(C(=O)N5CCN(C)CC5)C4)cc3)nn12 (centres unmarked) [Example 443, (1-{4-[7-(2-Methoxy-phenyl)-pyrrolo[2,1-f][1,2,4]triazin-2-ylamino]-phenyl}-piperidin-3-yl)-(4-methyl-piperazin-1-yl)-methanone] |
| 0.1 to 1 µM | < 0.1 µM | – | – | Cn1cnc2ccc(Nc3ncc4ccc(-c5ccc(S(C)(=O)=O)cc5)n4n3)cc21 [Example 1301, [7-(4-Methanesulfonyl-phenyl)-pyrrolo[2,1-f][1,2,4]triazin-2-yl]-(3-methyl-3H-benzimidazol-5-yl)-amine] |
| – | – | 0.1 to 1 µM | < 0.1 µM | CS(=O)(=O)Nc1ccc(-c2ccc3cnc(Nc4cccc(N5CCOCC5)c4)nn23)cc1 [Example 182, N-{4-[2-(3-Morpholin-4-yl-phenylamino)-pyrrolo[2,1-f][1,2,4]triazin-7-yl]-phenyl}-methanesulfonamide] |
| – | – | 1 to 10 µM | < 0.1 µM | NC(=O)CN1CCC(c2ccc(Nc3ncc4ccc(-c5cnccn5)n4n3)cc2)CC1 [Example 1564, 2-{4-[4-(7-Pyrazin-2-yl-pyrrolo[2,1-f][1,2,4]triazin-2-ylamino)-phenyl]-piperidin-1-yl}-acetamide] |
| < 0.1 µM | < 0.1 µM | – | – | CN1CCN(C(=O)N2CCC(c3ccc(Nc4ncc5ccc(-c6ccccc6N(C)S(C)(=O)=O)n5n4)cc3)CC2)CC1 [Example 503, N-Methyl-N-[2-(2-{4-[1-(4-methyl-piperazine-1-carbonyl)-piperidin-4-yl]-phenylamino}-pyrrolo[2,1-f][1,2,4]triazin-7-yl)-phenyl]-methanesulfonamide] |
| – | – | 0.1 to 1 µM | < 0.1 µM | CN1CCN(Cc2nc3cc(Nc4ncc5ccc(-c6cccc(S(C)(=O)=O)c6)n5n4)ccc3[nH]2)CC1 [Example 1538, [7-(3-Methanesulfonyl-phenyl)-pyrrolo[2,1-f][1,2,4]triazin-2-yl]-[2-(4-methyl-piperazin-1-ylmethyl)-1H-benzimidazol-5-yl]-amine] |
| 1 to 10 µM | < 0.1 µM | – | – | COc1ccc(-c2ccc3cnc(Nc4ccc5c(c4)COCCN5C)nn23)cn1 [Example 637, [7-(6-Methoxy-pyridin-3-yl)-pyrrolo[2,1-f][1,2,4]triazin-2-yl]-(1-methyl-1,2,3,5-tetrahydro-benzo[e][1,4]oxazepin-7-yl)-amine] |
| – | – | 0.1 to 1 µM | < 0.1 µM | COc1ccccc1Sc1ccc2cnc(Nc3ccc(N4CCN(C)CC4)cc3)nn12 [Example 98, [7-(2-Methoxy-phenylsulfanyl)-pyrrolo[2,1-f][1,2,4]triazin-2-yl]-[4-(4-methyl-piperazin-1-yl)-phenyl]-amine] |
| – | – | < 0.1 µM | < 0.1 µM | COc1ccccc1-c1ccc2cnc(Nc3cccc(N4CCC(N5CCOCC5)CC4)c3)nn12 [Example 195, [7-(2-Methoxy-phenyl)-pyrrolo[2,1-f][1,2,4]triazin-2-yl]-[3-(4-morpholin-4-yl-piperidin-1-yl)-phenyl]-amine] |
| 1 to 10 µM | < 0.1 µM | – | – | CC(=O)N1CCCCc2ccc(Nc3ncc4ccc(-c5ccccc5N(C)S(C)(=O)=O)n4n3)cc21 [Example 630, N-{2-[2-(1-Acetyl-2,3,4,5-tetrahydro-1H-benzo[b]azepin-8-ylamino)-pyrrolo[2,1-f][1,2,4]triazin-7-yl]phenyl}-N-methylmethanesulfonamide] |
| < 0.1 µM | < 0.1 µM | – | – | Cc1cc(Nc2ncc3ccc(-c4cccc(S(C)(=O)=O)c4)n3n2)ccc1C1CCN(CC(N)=O)CC1 [Example 948, 2-(4-{4-[7-(3-Methanesulfonyl-phenyl)-pyrrolo[2,1-f][1,2,4]triazin-2-ylamino]-2-methyl-phenyl}-piperidin-1-yl)-acetamide] |
| – | – | 0.1 to 1 µM | < 0.1 µM | c1cncc(-c2ccc3cnc(Nc4ccc(OCCN5CCOCC5)cc4)nn23)c1 [Example 125, [4-(2-Morpholin-4-yl-ethoxy)-phenyl]-(7-pyridin-3-yl-pyrrolo[2,1-f][1,2,4]triazin-2-yl)-amine] |
| – | – | < 0.1 µM | < 0.1 µM | COc1ccccc1-c1ccc2cnc(Nc3cc(F)c(N4CCN(C[C@H](C)O)CC4)cc3F)nn12 [Example 1481, (S)-1-(4-{2,5-Difluoro-4-[7-(2-methoxy-phenyl)-pyrrolo[2,1-f][1,2,4]triazin-2-ylamino]-phenyl}-piperazin-1-yl)-propan-2-ol] |
| < 0.1 µM | 0.1 to 1 µM | – | – | COc1cc(C2=CCN(CC(N)=O)CC2)ccc1Nc1ncc2ccc(-c3ccccc3OC)n2n1 [Example 1274, 2-(4-{3-Methoxy-4-[7-(2-methoxy-phenyl)-pyrrolo[2,1-f][1,2,4]triazin-2-ylamino]-phenyl}-3,6-dihydro-2H-pyridin-1-yl)-acetamide] |
| – | – | < 0.1 µM | 1 to 10 µM | COc1cc(C2CCN(CC(N)=O)CC2)ccc1Nc1ncc2c(Cl)cc(-c3ccccc3N(C)S(C)(=O)=O)n2n1 [Example 1554, 2-[4-(4-{5-Chloro-7-[2-(methanesulfonyl-methyl-amino)-phenyl]-pyrrolo[2,1-f][1,2,4]triazin-2-ylamino}-3-methoxy-phenyl)-piperidin-1-yl]-acetamide] |

| Compound | IC50 [1, 3] | IC50 [2, 4] | IC50 ([1]; ALK Kinase Inhibition) | IC50 ([2]; JAK2 Kinase Inhibition) |
| --- | --- | --- | --- | --- |
| CC(=O)Nc1cccc(Nc2ncc3ccc(-c4cccc(COC(C)(C)C)c4)n3n2)c1 [Example 1559, N-{3-[7-(3-tert-Butoxymethyl-phenyl)-pyrrolo[2,1-f][1,2,4]triazin-2-ylamino]-phenyl}-acetamide] | – | – | 1 to 10 µM | < 0.1 µM |
